Results on 13 compounds are retold here after patent US12377176B2, “Cancer diagnostic imaging agents” (Technische Universität München, priority 2019, dated 2025).

In general, IC50 refers to the midpoint of a concentration-inhibition curve. For orientation: logP means a log measure of how a compound divides between an organic and an aqueous phase. Low values mean lower lipophilicity, high ones higher lipophilicity. What is called log P is a log measure of how a compound divides between an organic and an aqueous phase.

One series has as its system LNCaP cells. The series can be described thus: Internalization into LNCaP cells, relative to ([125I]I-BA)KuE. Format: cell-based. Particulars: for internalization rate Mean / individual internalization rates: LNCaP cells, 1 h, 37 °C, c=0.5 nM; for individual internalization rates: single measurements. How it is done: Data is corrected for non-specific binding ([…]) and expressed as mean±SD (n=3).
Subsequent to the removal of the culture medium, the cells were washed once with 500 μL DMEM-F12 (5% BSA) and left to equilibrate for at least 15 min at 37° C. in 200 μL DMEM-F12 (5% BSA). Each well was treated with either 25 μL of either DMEM-F12 (5% BSA) or a 100 μM PMPA solution for blockade. Next, 25 μL of the ^68Ga/^18F-labeled PSMA inhibitor (5.0 nM) was added and the cells incubated at 37° C. for 60 min. The experiment was terminated by placing the 24-well plate on ice for 3 min and consecutive removal of the medium. Each well was rinsed with 250 μL HBSS and the fractions from these first two steps combined, representing the amount of free radioligand. Removal of surface bound activity was accomplished by incubation of the cells with 250 μL of ice-cold PMPA (10 μM in PBS) solution for 5 min and rinsed again with another 250 μL of ice-cold PBS. The internalized activity was determined by incubation of the cells in 250 μL 1 M NaOH and the combination with the fraction of a subsequent wash step with 250 μL 1.0 M NaOH. Each experiment (control and bloackde) was performed in triplicate. Free, surface bound and internalized activity was quantified in a γ-counter. […] Data were corrected for non-specific internalization and normalized to the specific-internalization observed for the radioiodinated reference compound.

For series [1], the system named is LNCaP tumor-bearing CB-17 SCID mice. Particulars: male, mouse, in vivo, 1 h.
Experimental: To establish tumor xenografts, LNCaP cells (10^7 cells/200 μL) were suspended in a 1:1 mixture (v/v) of Dulbecco modified Eagle medium/Nutrition Mixture F-12 with Glutamax-I (1:1) and Matrigel (BD Biosciences, Germany), and inoculated subcutaneously onto the right shoulder of 6-8 weeks old CB17-SCID mice (Charles River, Sulzfeld, Germany). Mice were used for when tumors had grown to a diameter of 5-8 mm (3-4 weeks after inoculation).
Approximately 1-2 MBq (<0.2 nmol) of the ^18F-labeled PSMA inhibitor was injected into the tail vein of LNCaP tumor-bearing male CB-17 SCID mice and sacrificed after 1 h post injection (n=4-5). Selected organs were removed, weighted and measured in a γ-counter
A further series deals with T1, PSMA (Homo sapiens, UniProt Q04609).
T1 construct: endogenous in cells; host or cells: LNCaP cells
The series can be described thus: Determination of IC50: PSMA affinity, competition with ([125I]I-BA)KuE on LNCaP cells. Format: binding. How it is done:
After removal of the culture medium, the cells were treated once with 500 μL of HBSS (Hank's balanced salt solution, Biochrom, Berlin, Germany, with addition of 1% bovine serum albumin (BSA)) and left 15 min on ice for equilibration in 200 μL HBSS (1% BSA). […] Quantification of bound and free radioligand was accomplished in a γ-counter.

Series [2] deals with T2, HSA (Homo sapiens, UniProt P02768).
T2 construct: purchased H13H-2433
Nature of the series: HSA binding on Chiralpak HSA column. Format: in vitro ADME. Particulars: for HSA Binding: Chiralpak HSA column (50 × 3 mm, 5 μm), (n = 6); for Log K HSA: logarithmic K of human serum albumin binding, calibration reference.
Experimental: The mobile phase (A: NH4OAc, 50 mM in water, pH 7 and B: isopropanol) was freshly prepared for each experiment and only used for one day. The column was kept at room temperature and each run was stopped after detection of the signal to reduce the acquisition time. All substances were dissolved in a 0.5 mg/ml concentration in 50% 2-propanol and 50% 50 mM pH 6.9 ammonium acetate buffer. […] All nine reference substances were injected consecutively to establish a non-linear regression with Origin Pro 2016G.

A short description of series [3]: Octanol-water partition coefficient (n-octanol/PBS pH 7.4). Format: physicochemical. How it is done:
Approximately 1 MBq of the labeled tracer was dissolved in 1 mL of a 1:1 mixture (by volumes) of phosphate buffered saline (PBS, pH 7.4) and n-octanol in an Eppendorf tube. After vigorous mixing of the suspension for 3 minutes at room temperature, the vial was centrifuged at 15000 g for 3 minutes (Biofuge 15, Heraus Sepatech, Osterode, Germany) and 100 μL aliquots of both layers were measured in a gamma counter. The experiment was repeated at least six times.
Determianation of the logP values was carried out in phosphate buffered saline (PBS, pH 7.4) and n-octanol (=logPoct/PBS).

For series [4], the target named is T2, HSA. The note with it: literature value of human serum albumin binding (Yamazaki 2004); calibration reference; cited from earlier work.
For series [5] the following is noted: Wängler et al., Bioconjug Chem. 2010; cited from earlier work.
Setting [6] is: mean ± SD as quoted in the discussion.
Where [7] appears, read: LNCaP cells, [125I]IB-KuE 0.2 nM, 1 h, 4 °C, HBSS+1% BSA, single measurements, read-out: individual IC50 measurements.
Setting [8] is: LNCaP cells, [125I]IB-KuE 0.2 nM, 1 h, 4 °C, mean of the individual measurements, read-out: IC50 Mean.

Several values for one entry are separate records, joined by “and”; a condition that tells them apart may be missing. Equal entries are not always repeated. Where two headings read alike, the source gives them in different places.

T2 sequence (P02768 25-609): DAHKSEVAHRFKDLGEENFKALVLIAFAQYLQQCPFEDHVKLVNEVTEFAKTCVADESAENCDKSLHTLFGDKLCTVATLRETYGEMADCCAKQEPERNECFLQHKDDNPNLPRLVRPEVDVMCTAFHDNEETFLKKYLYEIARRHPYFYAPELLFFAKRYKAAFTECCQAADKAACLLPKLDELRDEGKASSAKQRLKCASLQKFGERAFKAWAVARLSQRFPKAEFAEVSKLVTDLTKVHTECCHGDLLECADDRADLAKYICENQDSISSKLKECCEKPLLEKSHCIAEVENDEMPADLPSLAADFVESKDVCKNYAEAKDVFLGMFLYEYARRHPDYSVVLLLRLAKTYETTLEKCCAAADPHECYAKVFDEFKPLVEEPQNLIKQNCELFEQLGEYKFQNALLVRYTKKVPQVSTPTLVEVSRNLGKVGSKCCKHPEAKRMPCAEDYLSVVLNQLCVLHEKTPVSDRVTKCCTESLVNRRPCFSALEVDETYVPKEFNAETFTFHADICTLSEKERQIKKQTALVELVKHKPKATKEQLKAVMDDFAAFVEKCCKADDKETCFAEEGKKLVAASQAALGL
T1 sequence (Q04609 whole entry): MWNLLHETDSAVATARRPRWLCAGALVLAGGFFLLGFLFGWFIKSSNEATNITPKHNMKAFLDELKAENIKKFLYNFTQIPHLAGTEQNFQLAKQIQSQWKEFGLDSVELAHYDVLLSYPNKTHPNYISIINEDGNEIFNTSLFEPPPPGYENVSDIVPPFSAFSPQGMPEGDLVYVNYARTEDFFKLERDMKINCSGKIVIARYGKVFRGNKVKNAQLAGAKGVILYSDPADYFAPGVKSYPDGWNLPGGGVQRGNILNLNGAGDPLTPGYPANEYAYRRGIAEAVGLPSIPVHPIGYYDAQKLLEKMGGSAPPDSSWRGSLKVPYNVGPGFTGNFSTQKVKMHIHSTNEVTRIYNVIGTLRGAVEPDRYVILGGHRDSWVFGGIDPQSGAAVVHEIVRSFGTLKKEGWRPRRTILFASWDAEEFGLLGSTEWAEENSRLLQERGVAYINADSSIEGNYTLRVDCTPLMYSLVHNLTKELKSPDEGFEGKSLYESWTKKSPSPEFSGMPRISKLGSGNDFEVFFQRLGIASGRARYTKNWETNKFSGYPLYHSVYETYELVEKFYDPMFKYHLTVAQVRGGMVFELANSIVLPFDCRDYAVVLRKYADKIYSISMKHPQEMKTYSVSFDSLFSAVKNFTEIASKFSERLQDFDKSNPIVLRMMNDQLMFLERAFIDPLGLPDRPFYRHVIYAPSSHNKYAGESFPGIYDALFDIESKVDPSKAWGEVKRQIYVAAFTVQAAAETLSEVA

Take `CC(C)(C)[Si](F)(c1ccc(C(=O)NC[C@@H](NC(=O)CC[C@H](C(=O)O)N2CCN(CC(=O)O)CCN(CC(=O)O)CCN(CC(=O)O)CC2)C(=O)N[C@H](CCCCNC(=O)CCC(=O)NCCC[C@@H](NC(=O)CC[C@H](NC(=O)N[C@@H](CCC(=O)O)C(=O)O)C(=O)O)C(=O)O)C(=O)O)cc1)C(C)(C)C` [rhPSMA7.1, [^19F][^natGa]D-Dap-R-DOTAGA-rhPSMA7, metal not drawn]: in the series with LNCaP cells, the “internalization rate Mean” value was 69.55 % of [^125I]IB-KuE; the individual internalization rates is 77.5 % of [^125I]IB-KuE and 61.8 % of [^125I]IB-KuE and 70.6 % of [^125I]IB-KuE and 68.0 % of [^125I]IB-KuE and 67.9 % of [^125I]IB-KuE and 71.5 % of [^125I]IB-KuE. The internalization in the series with LNCaP cells (setting [6]) is 69.55%±5.29. In addition, in series [1], the Biodistribution adrenals worked out at 2.0 ± 0.25 % ID/g, the Biodistribution blood is 0.53 ± 0.13 % ID/g, the Biodistribution bone was 0.50 ± 0.31 % ID/g and the Biodistribution heart is reported as 0.53 ± 0.03 % ID/g. In series [1], this compound gave a Biodistribution intestine of 0.30 ± 0.16 % ID/g, a Biodistribution kidneys of 220 ± 24.8 % ID/g, a Biodistribution liver of 0.75 ± 0.62 % ID/g and a Biodistribution lung of 1.1 ± 0.21 % ID/g. In series [1], this compound registered a Biodistribution muscle of 0.32 ± 0.30 % ID/g, a Biodistribution pancreas of 0.45 ± 0.12 % ID/g, a Biodistribution spleen of 20.0 ± 4.2 % ID/g and a Biodistribution stomach of 0.28 ± 0.17 % ID/g. The Biodistribution tumor in series [1] came to 14.1 ± 4.1 % ID/g. The IC50 on PSMA (setting [7]) was 5.04 nM and 7.11 nM and 8.31 nM and 4.97 nM and 6.44 nM and 8.74 nM and 6.91 nM and 7.27 nM. The IC50 on PSMA (setting [8]) was 6.85 nM. The “HSA Binding” value on HSA [2] came to 97.7%.
For the compound `CC(C)(C)[Si](F)(c1ccc(C(=O)NC[C@H](NC(=O)CC[C@H](C(=O)O)N2CCN(CC(=O)O)CCN(CC(=O)O)CCN(CC(=O)O)CC2)C(=O)N[C@H](CCCCNC(=O)CCC(=O)NCCC[C@@H](NC(=O)CC[C@H](NC(=O)N[C@@H](CCC(=O)O)C(=O)O)C(=O)O)C(=O)O)C(=O)O)cc1)C(C)(C)C` [rhPSMA7.2, [^19F][^natGa]L-Dap-R-DOTAGA-rhPSMA7, metal not drawn], in the series on LNCaP cells, the “internalization rate Mean” value was 191.83 % of [^125I]IB-KuE; the individual internalization rates was 192.3 % of [^125I]IB-KuE and 188.7 % of [^125I]IB-KuE and 182.7 % of [^125I]IB-KuE and 169.5 % of [^125I]IB-KuE and 205.3 % of [^125I]IB-KuE and 212.6 % of [^125I]IB-KuE. Also, the internalization in the series on LNCaP cells (setting [6]) is on record as 191.83%±15.54. In series [1], the Biodistribution adrenals is listed as 1.3 ± 0.8 % ID/g, the Biodistribution blood was found to be 0.56 ± 0.20 % ID/g, the Biodistribution bone was 0.31 ± 0.24 % ID/g and the Biodistribution heart is on record as 0.32 ± 0.13 % ID/g. In series [1], the Biodistribution intestine came to 0.18 ± 0.07 % ID/g, the Biodistribution kidneys is given as 87.6 ± 28.8 % ID/g, the Biodistribution liver is 0.35 ± 0.08 % ID/g and the Biodistribution lung worked out at 0.89 ± 0.38 % ID/g. Besides, in series [1], the Biodistribution muscle is on record as 0.13 ± 0.07 % ID/g, the Biodistribution pancreas is 0.21 ± 0.08 % ID/g, the Biodistribution spleen stood at 10.1 ± 6.3 % ID/g and the Biodistribution stomach was found to be 0.19 ± 0.08 % ID/g. The compound also registered a Biodistribution tumor in series [1] of 6.5 ± 2.3 % ID/g. Further, the half-maximal inhibitory concentration (IC50) at PSMA (setting [7]) was 2.64 nM and 2.76 nM and 3.94 nM and 5.8 nM and 4.31 nM and 4.32 nM and 3.17 nM and 2.97 nM and 3.36 nM. In addition, on PSMA (setting [8]), the IC50 was determined as 3.7 nM. In series [3] (octanol/PBS7.4, single measurements), the “individual log P measurements” value is −3.00 and −3.02 and −3.06 and −3.45. Also, the logP in series [3] (pH 7.4, log P) was -3.13 ± 0.22. In addition, the logP in series [3] (pH 7.4, log P Mean) was -3.13. Moreover, on HSA [2], the “HSA Binding” value amounted to 97.8%.
For `O=[N+]([O-])c1ccc(O)cc1` [p-nitrophenol], the “Lit. HSA %” value at HSA [4] is recorded as 77.65%.
As to `Oc1ccccc1` [Phenol], the “Lit. HSA %” value at HSA [4] is listed as 20.69%. Also, the “Log K HSA” value on HSA [2] was −0.59.
`Nc1ccccc1` [Aniline]: on HSA [4], the “Lit. HSA %” value is 14.06%. Further, on HSA [2], the “Log K HSA” value is recorded as −0.79.
With “SIFA-Asn(AcNH-β-Glc)-PEG-Tyr^3-octreotate”, the “log P(ow)” value in series [5] is on record as 0.96.
For `O=C(O)c1ccccc1` [Benzoic Acid], the “Lit. HSA %” value at HSA [4] is 34.27%.
Take PSMA-1007 [reference compound]: the internalization in the series with LNCaP cells (other selected PSMA inhibitors, own lab, identical assay (Robu et al. 2018)) is 118 ± 4 % of [^125I]IB-KuE. Further, on PSMA (other selected PSMA inhibitors, own lab, identical binding assay (Robu et al. 2018), read-out: IC50), the IC50 was 4.2 ± 0.5 nM. In addition, the “log P” value in series [3] (octanol/PBS7.4, (n = 6)) is reported as −1.6. For the same compound, the “HSA Binding” value on HSA [2] stood at 97.8%.
For `CC(C)(C)[Si](F)(c1ccc(C(=O)NC[C@H](NC(=O)CC[C@@H](C(=O)O)N2CCN(CC(=O)O)CCN(CC(=O)O)CCN(CC(=O)O)CC2)C(=O)N[C@H](CCCCNC(=O)CCC(=O)NCCC[C@@H](NC(=O)CC[C@H](NC(=O)N[C@@H](CCC(=O)O)C(=O)O)C(=O)O)C(=O)O)C(=O)O)cc1)C(C)(C)C` [rhPSMA7.4, [^19F][^natGa]L-Dap-S-DOTAGA-rhPSMA7, metal not drawn], in the series on LNCaP cells, the “internalization rate Mean” value is 207.33 % of [^125I]IB-KuE; the individual internalization rates was 209.6 % of [^125I]IB-KuE and 202.6 % of [^125I]IB-KuE and 209.8 % of [^125I]IB-KuE. In the series on LNCaP cells (setting [6]), the internalization is recorded as 207.33±4.06%. Moreover, in series [1], the Biodistribution adrenals came to 3.57 ± 2.38 % ID/g, the Biodistribution blood is reported as 1.15 ± 0.30 % ID/g, the Biodistribution bone is reported as 0.62 ± 0.30 % ID/g and the Biodistribution heart is reported as 0.71 ± 0.26 % ID/g. Besides, in series [1], the Biodistribution intestine is recorded as 0.37 ± 0.09 % ID/g, the Biodistribution kidneys amounted to 153 ± 80.3 % ID/g, the Biodistribution liver came to 0.69 ± 0.20 % ID/g and the Biodistribution lung is listed as 1.59 ± 0.61 % ID/g. For the same compound, in series [1], the Biodistribution muscle is 0.31 ± 0.08 % ID/g, the Biodistribution pancreas came to 0.50 ± 0.30 % ID/g, the Biodistribution spleen is on record as 18.4 ± 9.77 % ID/g and the Biodistribution stomach is given as 0.25 ± 0.06 % ID/g. In series [1], this compound displayed a Biodistribution tumor of 18.9 ± 3.27 % ID/g. For the same compound, on PSMA (setting [7]), the IC50 is 3.4 nM and 3.56 nM and 2.79 nM and 4.57 nM and 3.78 nM. In addition, the IC50 at PSMA (setting [8]) came to 3.62 nM. On HSA [2], the “HSA Binding” value is listed as 96.6%.
SIFA-Asn(AcNH-β-Glc)-Tyr^3-octreotate: in series [5], the “log P(ow)” value is 1.23.
For the compound `CCCN(CCC)S(=O)(=O)c1ccc(C(=O)O)cc1` [Probenecid], the “Lit. HSA %” value at HSA [4] is listed as 95.00%.
`O=C(O)CC[C@H](NC(=O)N[C@@H](CCCCNC(=O)c1ccc(F)nc1)C(=O)O)C(=O)O` [DCFPyL]: on HSA [2], the “HSA Binding” value turned out to be 14.3%.
As to `COc1ccc(Cl)cc1C(=O)NCCc1ccc(S(=O)(=O)NC(=O)NC2CCCCC2)cc1` [Glibenclamide], on HSA [4], the “Lit. HSA %” value is given as 99.00%. Further, the “Log K HSA” value on HSA [2] is reported as 1.69.
